From patent US20240366555A1, “SELECTIVE MTORC2 INHIBITOR AND USES THEREOF” (ALIAD BIOPHARMA, priority 2021, published 2024) come the findings set out here.

Experiment [1] addresses T1, mTORC2 located in late endosome of dendritic spines (Rattus norvegicus, UniProt P42346).
T1 construct: endogenous in cells; host or cells: primary cultured cerebral neurons from SD-rat E16 embryos, transduced by lentivirus only with mCherry-FRB-AKT2 and Rab7-FKBP
As to the kind of experiment: LocaTOR2 assay-immunofluorescent staining in primary cultured cerebral neurons (mGluR-dependent mTORC2 activation). Format: cell-based. To be noted: FIG. 11a. An excerpt:
By combining Loca-TOR2 assay and immunofluorescence staining, changes in mTORC2 activity located in the late endosome during the induction process of long term depression (LTD) occurring in dendritic spines of primarily cultured cerebral neurons were investigated, and the inhibitory effect of norathyriol on these changes was investigated.
Specifically, mCherry-FRB-AKT2 and Rab7-FKBP were introduced using a lentiviral vector on the primarily cultured cerebral neuron on the DIV5 day, and AP21967 was treated on the DIV17 day to induce binding of FRB and FKBP, and thereby, mCherry-FRB-AKT2 was located in the late endosome. After that, DHPG, which is an mGluR agonist inducing long-term depression, was treated. […] In addition, by measuring Ser473 phosphorylation staining of mCherry-FRB-AKT2 overlapped with PSD-95 staining, which is a protein located in dendritic spines, by immunofluorescent staining, changes in mTORC2 activity located in the late endosome in the dendritic spines can be investigated. After staining using a phospho-Ser473 AKT antibody by immunofluorescent staining, the degree of AKT Ser473 phosphorylation was quantified by counting the number of each fluorescent puncta larger than 0.4 μm or more in size in the dendrites (green). In addition, the dendritic spines were observed by staining with PSD95 antibody (yellow), and the location of mCherry-FRB-AKT2 was investigated by observing mCherry fluorescence (cherry color).
SD-rat gestational age 16-day mice (Orient Bio) were purchased and the mice were anesthetized with CO2 and then embryos were taken out. Until the forebrain was isolated and the meninges were removed, it was performed by the same method as the hippocampal culture, and when the cerebrum was isolated, the dorsal cortex or ventral cortex was cut with a bended syringe needle, and it was collected in new HBSS. The tissue isolated and collected was transferred to a 15 ml tube with a Pasteur pipette, and then in order to remove the remaining meninges and blood vessels, and the like, 2 ml HBSS and 0.25% trypsin of 2 ml were added, and it was reacted in a 37° C. shaker for 10-15 minutes. The cells were settled and the supernatant was removed leaving 1-2 ml, and then trypsin was inactivated by adding DMEM comprising the equal amount of 20% FBS. After centrifugation at 700 rpm for 15 minutes, the supernatant was discarded all and the collected tissue was released, and then Neurobasal culture medium (+glutamate) of 2 ml was added, and titrated with a pipette, and the cells were isolated by changing to a pipette with a narrow end. […] The number of cells was measured with a hemocytometer, and then the cells were seeded in a coated culture dish. […]

Experiment [2] has as its system Arc protein expression. As to the kind of experiment: mGluR-dependent Arc protein expression in cerebral neurons. Format: cell-based. To be noted: DHPG alone; FIG. 12a. Here is the method: When mGluR is activated in dendritic spines of cerebral neurons, Arc protein is synthesized, and the Arc protein promotes endocytosis of an AMPA receptor to form LTD.
Specifically, DHPG was treated to cerebral neurons, which were obtained by primary culture of white mouse embryo E16 cerebral regions and differentiated for […] (DIV21), for 5 minutes or 10 minutes to activate mGluR. As an Arc antibody, Arc protein (green) and PSD95 (red), which is a marker antibody of postsynaptic density of a synapse, were under
After double immunofluorescent staining of Arc protein with an Arc antidody (green) and PSD95, a marker of postsynaptic density of synapse, with an PSD95 antibody (red), Arc expression in dendritic spines was quantified as the number of Arc+PSD95 double stained puncta per 20 μm neurite length by confocal scanning microscopic scanning.

For experiment [3], the target named is T2, mTORC2 (Homo sapiens, UniProt P42345). As to the kind of experiment: In vitro mTORC2 kinase assay (GST-Akt Ser473 phosphorylation, immunoblot). The format is biochemical. Set-up: mTORC was isolated by co-immunoprecipitation using Flag antibody; made in house; host or cells: HEK 293T transfected with Flag-mLST8. To be noted: assay validation with dual mTOR inhibitor. As for the experimental part:
After introducing Flag-mLST8 into a human cell line 293T, mTORC was isolated by co-immunoprecipitation using Flag antibody. In the in vitro mTORC2 kinase assay, the activity of the isolated mTORC2 was evaluated by measuring phosphorylation of GST-Akt Ser473, which is a selective substrate of mTORC2 by immunoblot analysis. In the control group in which Flag-mLST8 was not introduced, GST-Akt Ser473 phosphorylation was almost not measured. […] Therefore, it was judged that GST-Akt Ser473 phosphorylation measured in the in vitro mTORC2 kinase assay was generated by mTORC2. In order to evaluate the inhibitory effect of norathyriol and athyriol on mTORC2 activity, norathyriol or athyriol was pretreated for 15 minutes, and then in vitro mTORC2 kinase assay was carried out.
More specifically, the HEK 293T cells were cultured in a DMEM culture medium in which 10% heat inactivated FBS+1× Glutamax was added. 8×10^5 HEK 293T cells were seeded in a 100 mm culture dish, and then they were cultured for 1 day. After mixing 42 μl Lipofectamine, 21 μl plus reagent, and 21 μg Flag-mLST8 plasmid DNA to 1 ml OPTI-MEM, it was shaken at a room temperature for 25 minutes to prepare a transfection DNA mixture. The transfection DNA mixture was slowly treated on the cells drop by drop, and after culturing for 5 hours, the culture medium was replaced with a new culture medium. After additional culturing for 48 hours, the cells were […] with CHAPS buffer (50 mM HEPES (pH7.4), 100 mM NaCl, 2 mM EDTA, 0.3% CHAPS, 10 mM sodium pyrophosphate, 10 mM sodium β-glycerophosphate, 1 mM PMSF, 1 μg/ml leupeptin, 1 μg/ml pepstatin A, 10 nM aprotinin, 1 mM Na3VO4, 10 nM calyculin A), and centrifuged at 4° C. at 13,000 rpm for 10 minutes to obtain the supernatant and acquire cell lysate. The protein concentration of the cell lysate was determined with BCA protein assay kit (Thermo Fisher Scientific). After adding anti-Flag M2 affinity gel (50% slurry, Sigma) of 30 μl to the cell lysate of 1 mg, it was shaken at 4° C. for 3 hours. After that, affinity gel was washed with CHAPS buffer 3 times and kinase buffer (50 mM HEPES (pH7.5), 2 mM DTT, 10 mM MnCl2, 10 mM MgCl2) for washing once. After adding kinase buffer [-substrate-ATP] […] After that, kinase buffer (50 mM HEPES (pH7.5), 2 mM DTT, 10 mM MgCl2, 10 mM MnCl2, 1 mM ATP, 500 ng GST-AKT, 10 nM calyculin A) of 10 μl was added and shaken at 30° C. for 45 minutes to progress a kinase reaction. […] Ser473 phosphorylation of GST-AKT, which is a substrate of mTORC2, was measured by performing immunoblot analysis using AKT antibody (#4691, Cell signaling) and phospho Ser473 AKT antibody (#4060, Cell signalig). In order to measure the mTORC2 activity inhibitory effect by the compound, both the kinase buffer [-substrate-ATP] and the kinase buffer included the compound.

The target in experiment [4] is T3, mTORC1 (Homo sapiens, UniProt P42345).
T3 construct: mTORC1 was isolated by co-immunoprecipitation using Flag antibody; made in house; host or cells: HEK 293T transfected with Flag-Raptor
Briefly: In vitro mTORC1 kinase assay (GST-S6K Thr389 phosphorylation, immunoblot). Format: biochemical. To be noted: assay validation with dual mTOR inhibitor. As for the experimental part: In order to investigate the effect on mTORC1 activity of norathyriol, in vitro mTORC1 kinase assay was performed. After introducing Flag-Raptor into a human cell line 293T, mTORC1 was isolated by co-immunoprecipitation using Flag antibody. In addition, the activity of the isolated mTORC1 complex was evaluated by measuring phosphorylation of GST-S6K Thr389, which is a selective substrate of mTORC1, by immunoblot analysis. In the control group in which Flag-Raptor was not introduced, GST-S6K Thr389 phosphorylation was almost not measured. […] Therefore, it was judged that GST-S6K Thr389 phosphorylation measured in the in vitro mTORC1 kinase assay was generated by mTORC1. In order to evaluate the inhibitory effect of norathyriol on mTORC1 activity, norathyriol was pretreated for 15 minutes, and then in vitro mTORC1 kinase assay was carried out.
More specifically, the HEK 293T cells were cultured in a DMEM culture medium in which 10% heat inactivated FBS+1× Glutamax was added. 8×10^5 HEK 293T cells were seeded in a 100 mm culture dish, and then they were cultured for 1 day. After mixing 42 μl Lipofectamine, 21 μl plus reagent, and 21 μg Flag-Raptor plasmid DNA to 1 ml OPTI-MEM, it was shaken at a room temperature for 25 minutes to prepare a transfection DNA mixture. The transfection DNA mixture was slowly treated on the cells drop by drop, and after culturing for 5 hours, the culture medium was replaced with a new culture medium. […] The protein concentration of the cell lysate was determined with BCA protein assay kit (Thermo Fisher Scientific). […] Thr389 phosphorylation of GST-S6K1, which is a substrate of mTORC1, was measured by performing immunoblot analysis using phospho Thr389 p70 S6 kinase antibody (#9205S, Cell Signaling) and GST antibody (#A190-122A, Bethyl Laboratories). […]

For experiment [5], the target named is T2, mTORC2. Briefly: LocaTOR2 assay in A549 cells (FRB-AKT2 Ser473 phosphorylation). The format is cell-based. Set-up: endogenous in cells; host or cells: A549 (transfected only with the FKBP-recruiter and the FRB-AKT2 reporter). To be noted: A549, KRas4B^C30-FKBP recruiter, AP21967; norathyriol at 30 μM and 60 μM; FIG. 9a. An excerpt: mTORC2 is located in the cell membrane, endosome, ER and mitochondrial membrane. mTORC2 forms an mTORC2 complex as an activated form of ras (ras-GTP) operates as a scaffold in the cell membrane, whereas it forms an mTORC2 complex as mLST8 operates as a scaffold in the endosome. By this difference, the mTORC2 inhibitory effect of norathyriol may be shown differently depending on the subcellular compartment where mTORC2 is located. In order to investigate the mTORC2 inhibitory effect of norathyriol depending on the subcellular compartment location, in vivo LocaTOR2 assay was performed (Ebner et al. (2017) J. Cell Biol. 216:343-353). After introducing FKBP-recruiter selectively located in the membrane of the subcellular compartment and FRB^T2098L-AKT2 which is an mTORC2 substrate, AP21967 was treated for 40 minutes to induce binding between the FKBP-recruiter and FRB-AKT2, and FRB-AKT2 was moved to a specific subcellular compartment. In addition, the degree of phosphorylation of Ser473 of FRB-Akt by mTORC2 located in the site thereof was investigated by immunoblot analysis.

Take `NC(C(=O)O)c1cc(O)cc(O)c1` (stereo not shown) [DHPG, 3,5-dihydroxyphenylglycine]: the “increase of Ser473 phosphorylation of mCherry-FRB-AKT2 located in late endosome of dendritic spines” value in experiment [1] (after 5 minutes of treating DHPG) was determined as 55%; in experiment [1] (after 10 minutes of treating DHPG), 72%. The “Ser473 phosphorylation of mCherry-FRB-AKT2 located in late endosome of dendritic spines” value in experiment [1] (after 20 minutes of treating DHPG) is recorded as “reduced to the level of the control group”. Also, the “Arc synthesis in dendritic spines (immunofluorescent staining)” value in experiment [2] is recorded as “increased up to 10 minutes after treating DHPG”.
Turning to `COc1ccc(-c2ccc3c(N4CCOC[C@@H]4C)nc(N4CCOC[C@@H]4C)nc3n2)cc1CO` [AZD8055, reference compound], in experiment [3], the “GST-Akt Ser473 phosphorylation” value was “mostly reduced”. In addition, the “GST-S6K Thr389 phosphorylation” value in experiment [4] is on record as “mostly reduced”. Moreover, the “FRB-AKT2 Ser473 phosphorylation, mTORC2 located in cell membrane” value in experiment [5] is on record as “reduced the phosphorylation of FRB-AKT2 Ser473 to a level of the control group”.
